Key:
[1] = ORAC against peroxyl radicals; conditions: trolox equivalents
Text: (§1) Table 4 illustrates the ORAC scores for oregano essential oil (Origanum vulgare), thyme essential oil (Thymus vulgaris), cinnamaldehyde, and ActiFibe (50 wt. % larch arabinogalactan, 50 wt. % water) against 5 of the most common detrimental ROS: peroxyl radicals (RO2), hydroxyl radicals (OH^−1), peroxynitrate (ONO2^−1; H2O2+NO2^−1), superoxide anion (O2^−1), and singlet oxygen (O2). Results are expressed as trolox equivalents (TE/100 g) for each composition: […]

[2] = ORAC against hydroxyl radicals; conditions: trolox equivalents
Text: as §1

[3] = ORAC against peroxynitrite; conditions: trolox equivalents
Text: as §1

[4] = ORAC against superoxide anion; conditions: trolox equivalents
Text: as §1

[5] = ORAC against singlet oxygen; conditions: trolox equivalents
Text: as §1

[6] = Total ORAC over the five ROS; conditions: sum over the five oxygen species
Text: as §1

[7] = 3-oil screening trial, 35 days, broilers with cocci stress; assay type: in vivo, Cobb 500 cockerels; conditions: 0.75 pounds per ton of feed
Text: 640 1-day-old Cobb 500 cockerels were wing banded, weighed and randomly assigned to pens on the day of delivery. Each pen was 3 feet wide by 2 feet long by 2 feet tall holding 10 birds each; density was 0.6 sq. ft. per bird. The pens were contained within two battery cages in a single barn, each with battery cage having 4 levels and 8 pens per level for a total of 32 pens per battery. The experimental period was 35 days divided into three (3) feeding stages, starter, grower and finisher. Bird weight, average daily gain (ADG), average daily feed intake (ADFI), feed to gain (FG) and Coccidiosis oocyte counts were determined at each period. This study was performed with a large number of treatments in order to screen a number of possible treatments for further future investigations. […]

**Q.** For `O=CC=Cc1ccccc1` [Cinnamaldehyde, cinnamaldehyde], which “Oxygen Radical Absorbance Capacity, Peroxyl radical” value [1] is on record?
**A.** 18,800 TE/100 g

**Q.** And the “Oxygen Radical Absorbance Capacity, Hydroxyl radical” value [2]?
**A.** 49,300 TE/100 g

**Q.** And the “Oxygen Radical Absorbance Capacity, Peroxynitrite” value [3]?
**A.** 3,500 TE/100 g

**Q.** What about the “Oxygen Radical Absorbance Capacity, Superoxide anion” value [4] of the same compound?
**A.** 978,900 TE/100 g

**Q.** And the “Oxygen Radical Absorbance Capacity, Singlet oxygen” value [5]?
**A.** 90,800 TE/100 g

**Q.** And the “Total ORAC” value [6]?
**A.** 1,141,300 TE/100 g

**Q.** And the “Average bird weights at 35 days” value [7]?
**A.** 2180.2 grams
